# US20190119300A1, “SUBSTITUTED AND FUSED 6-MEMBERED PROTEASE ACTIVATED RECEPTOR 4 (PAR-4) ANTAGONISTS” (Vanderbilt University, priority 2016, published 2019)
# Experiments:
# [1] = target: T1, PAR-4 (Homo sapiens, UniProt Q96RI0); assay: PAC-1 binding assay, washed platelets stimulated with PAR-4-AP (flow cytometry); format: cell-based; details: PAR-4-AP stimulation; for remaining activity at 10 µM: 10 μM antagonist, 100% = DMSO control stimulated, read-out: PAR-4 AP % Max PAC-1 binding (10 μM); for IC50: read-out: PAR-4 AP % Max PAC-1 binding (IC50 [M])
# T1 construct: endogenous in cells; host or cells: washed platelets
# T1 sequence (Q96RI0 18-385): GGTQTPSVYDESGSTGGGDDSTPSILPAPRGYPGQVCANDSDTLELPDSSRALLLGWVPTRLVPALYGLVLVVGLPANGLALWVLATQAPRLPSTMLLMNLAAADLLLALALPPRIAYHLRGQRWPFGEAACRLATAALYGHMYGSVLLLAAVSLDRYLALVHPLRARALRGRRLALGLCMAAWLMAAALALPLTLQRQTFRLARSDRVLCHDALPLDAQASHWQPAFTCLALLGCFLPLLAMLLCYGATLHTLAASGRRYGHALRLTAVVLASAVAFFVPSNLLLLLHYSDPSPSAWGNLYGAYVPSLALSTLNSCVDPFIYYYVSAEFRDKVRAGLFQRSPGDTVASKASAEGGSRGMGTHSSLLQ
# Experimental: (§1) PAC-1 Binding assay: 60 μL of washed platelets (Tyrodes buffer containing 0.1% BSA) at a concentration of 0.15×10^8 platelets/mL were added to 5 mL round bottom polystyrene tubes (BD, Franklin Lakes, N.J.). FITC conjugated PAC-1 (BD Biosciences, San Jose, Calif.) antibody was diluted (to the manufacturers recommended concentration) in Tyrode's buffer containing 0.1% BSA. 40 μL of diluted antibody was added to the platelets and allowed to incubate for 5 minutes. Platelets were pre-treated with indicated concentrations of antagonist or DMSO control for 20 minutes (the final DMSO concentration was 0.5%) followed by addition of PAR-1-AP (GL Biochem, Shanghai, China), PAR-4-AP, or gamma-thrombin for 10 minutes. Platelet activity was quenched by the addition ice cold 1.5% paraformaldehyde followed by dilution in 1× phosphate buffered saline. Platelets were stored up to 18 hours at 4° C. before flow cytometric analysis. Analysis was carried out on a BD FACS Canto II or BD LSRII (Franklin Lakes, N.J.). Fluorescent intensity was determined for at least 20,000 events within the platelet gate (forward scatter versus side scatter). Data was collected and analyzed via FACS DiVa or FlowJo software. Flow cytometric data analysis was conducted by the following method. The DMSO-vehicle treated control was subtracted from each data point. 100% response for PAR-4-AP was determined for each individual as the DMSO treated control stimulated with PAR-4-AP, PAR-1-AP, or gamma-thrombin. Data was plotted in GraphPad PRISM v.5.0. For compounds with a notable reduction in PAC-1 binding response, dose response curves and IC50 values were generated using the inhibitory sigmoidal dose response ‘variable slope’ parameter. Results were plotted as mean±SEM.
# [2] = target: T1, PAR-4; assay: PAC-1 binding assay, washed platelets stimulated with 100 nM gamma-thrombin (flow cytometry); format: cell-based; details: 100 nM γ-thrombin stimulation
# Description: Gamma-thrombin is a proteolytic product of alpha-thrombin cleavage by a serine protease. Cleavage results in the disruption of exosite I which interacts directly with the hirudin-like domain of its primary substrates fibrinogen and protease-activated receptor 1 (PAR1). […] See Soslau, G., Class, R., Morgan, D. A., Foster, C., Lord, S. T., Marchese, P., and Ruggeri, Z. M. (2001) Unique pathway of thrombin-induced platelet aggregation mediated by glycoprotein Ib, The Journal of biological chemistry 276, 21173-21183. Gamma-thrombin (Enzyme Research Laboratories, South Bend, Indiana) is produced by trypsin-sepharose cleavage of alpha-thrombin. To neutralize alpha-thrombin contamination, stock solutions of gamma-thrombin are preincubated with 1 unit/mL hirudin prior 100 fold dilution into the sample for platelet stimulation. […] Single point screens and concentration response curves are conducted with 316 nanomolar or 100 nanomolar gamma-thrombin using PAC1 and CD62p binding.
# as §1
remaining activity at 10 µM [1],IC50 [1],IC50 [2],Compound
-1.91%,–,–,COc1nn2cc(-c3ccc(C(F)(F)F)cc3)nc2s1 [Example B1]
-0.14%,1.33e-06 M,–,COc1nn2cc(-c3ccccc3C(F)(F)F)nc2s1 [Example B2]
-0.26%,–,–,COc1nn2cc(-c3cccc(C(F)(F)F)c3)nc2s1 [Example B3]
1.29%,–,–,COc1nn2cc(-c3c(F)cccc3F)nc2s1 [Example B4]
0.21%,1.75e-07 M,–,COc1nn2cc(-c3ccc(F)cc3F)nc2s1 [Example B5]
2.82%,1.96e-07 M,–,COc1nn2cc(-c3ccc(Br)cc3F)nc2s1 [Example B6]
1.47%,6.85e-07 M,–,COc1nn2cc(-c3cccc(F)c3)nc2s1 [Example B7]
1.48%,7.08e-07 M,–,COc1nn2cc(-c3ccccc3)nc2s1 [Example B8]
-0.09%,1.43e-07 M,–,COc1nn2cc(-c3ccc(Oc4ccccc4)cc3)nc2s1 [Example B9]
-1.59%,6.25e-07 M,–,COc1ccc(-c2cn3nc(OC)sc3n2)cc1 [Example B10]
4.19%,1.09e-06 M,–,COc1nn2cc(-c3ccc(S(C)(=O)=O)cc3)nc2s1 [Example B11]
1.78%,5.2e-08 M,> 1000 nM,"COc1nn2cc(-c3ccc(C)cc3)nc2s1 [Example B12, 2-methoxy-6-(p-tolyl)imidazo[2,1-b][1,3,4]thiadiazole]"
98.4%,–,–,COc1nn2cc(-c3ccc(O)cc3O)nc2s1 [Example B13]
92.7%,–,–,COc1nn2cc(-c3ccccc3O)nc2s1 [Example B14]
8.45%,3.95e-06 M,–,COc1nn2cc(-c3ccccc3OC)nc2s1 [Example B15]
91.2%,–,–,COc1nn2cc(-c3ccc(O)cc3)nc2s1 [Example B16]
0.93%,8.95e-07 M,–,COc1nn2cc(-c3ccc(C#N)cc3)nc2s1 [Example B17]
18.6%,2.22e-05 M,–,COc1nn2cc(-c3ccccn3)nc2s1 [Example B18]
0.02%,–,–,COc1nn2cc(-c3ccc(Cl)cc3)nc2s1 [Example B19]
-0.92%,–,–,COc1nn2cc(-c3ccc(Cl)c(Cl)c3)nc2s1 [Example B20]
0.74%,4.54e-07 M,–,COc1nn2cc(-c3ccccc3Cl)nc2s1 [Example B21]
81.3%,–,–,COc1nn2cc(-c3cccnc3)nc2s1 [Example B22]
-1.07%,6.9e-08 M,> 1000 nM,COc1nn2cc(-c3cccc(Cl)c3)nc2s1 [Example B23]
3.35%,1.63e-07 M,–,COc1nn2cc(-c3ccc(-c4cccs4)cc3)nc2s1 [Example B24]
-0.34%,5.23e-08 M,> 1000 nM,COc1nn2cc(-c3cc(C(F)(F)F)cc(C(F)(F)F)c3)nc2s1 [Example B25]
1.52%,9.95e-08 M,–,COc1nn2cc(-c3ccc(Cl)c([N+](=O)[O-])c3)nc2s1 [Example B26]
-0.2%,–,–,COc1nn2cc(-c3ccc(OC(F)(F)F)cc3)nc2s1 [Example B27]

remaining activity at 10 µM [1],IC50 [1],IC50 [2],Compound
-0.21%,8.34e-08 M,> 1000 nM,COc1nn2cc(-c3ccc(OC(F)F)cc3)nc2s1 [Example B28]
-0.45%,–,–,COc1nn2cc(-c3ccc(F)c(C(F)(F)F)c3)nc2s1 [Example B29]
-0.14%,5.26e-07 M,–,COc1nn2cc(-c3ccccc3F)nc2s1 [Example B30]
1.6%,2.07e-07 M,–,COc1nn2cc(-c3ccc([N+](=O)[O-])cc3)nc2s1 [Example B31]
3.47%,1.17e-06 M,–,CCOc1nn2cc(-c3c(F)cccc3F)nc2s1 [Example B32]
102%,–,–,CC(C)Oc1nn2cc(-c3c(F)cccc3F)nc2s1 [Example B33]
109%,–,–,Fc1cccc(F)c1-c1cn2nc(OC3CCCC3)sc2n1 [Example B34]
2.31%,1.24e-06 M,–,CCOc1nn2cc(-c3cccc(Cl)c3)nc2s1 [Example B35]
63.2%,–,–,CC(C)Oc1nn2cc(-c3cccc(Cl)c3)nc2s1 [Example B36]
97.3%,–,–,CC(C)COc1nn2cc(-c3cccc(Cl)c3)nc2s1 [Example B37]
99.5%,–,–,Clc1cccc(-c2cn3nc(OC4CCCC4)sc3n2)c1 [Example B38]
2.21%,6.48e-07 M,–,CCOc1nn2cc(-c3ccc(C(F)(F)F)cc3)nc2s1 [Example B39]
81.5%,–,–,CC(C)Oc1nn2cc(-c3ccc(C(F)(F)F)cc3)nc2s1 [Example B40]
102%,–,–,CC(C)COc1nn2cc(-c3ccc(C(F)(F)F)cc3)nc2s1 [Example B41]
114%,–,–,FC(F)(F)c1ccc(-c2cn3nc(OC4CCCC4)sc3n2)cc1 [Example B42]
0.91%,1.33e-06 M,–,"COc1nn2cc(-c3ccc(OCc4csc(-c5ccccc5)n4)cc3)nc2s1 [Example B43, 2-Methoxy-6-(4-((2-phenylthiazol-4-yl)methoxy)phenyl)imidazo[2,1-b][1,3,4]thiadiazole]"
93.7%,–,–,CC(C)COc1nn2cc(-c3c(F)cccc3F)nc2s1 [Example B44]
48.1%,–,–,COc1nn2cc(-c3ccc4ncn(C)c4c3)nc2s1 [Example B45]
10.4%,–,–,COc1nn2cc(-c3ccc(N4CCOCC4)cc3)nc2s1 [Example B46]
-0.27%,4.32e-08 M,≥ 1000 nM,COc1nn2cc(-c3cccc(OCc4csc(-c5ccccc5)n4)c3)nc2s1 [Example B47]
96%,–,–,COc1nn2cc(-c3ccccc3OCc3csc(-c4ccccc4)n3)nc2s1 [Example B48]
17.1%,> 1e-06 M,–,COc1nn2cc(-c3ccccc3[N+](=O)[O-])nc2s1 [Example B49]
6.82%,> 1e-06 M,–,COc1nn2cc(-c3cccc([N+](=O)[O-])c3)nc2s1 [Example B50]
72.7%,–,–,COc1nn2cc(-c3ccc(-c4ccccc4)cc3)nc2s1 [Example B51]
0.063%,4.06e-07 M,–,COc1nn2cc(-c3ccc(F)cc3)nc2s1 [Example B52]
-0.071%,2.91e-07 M,–,COc1cccc(-c2cn3nc(OC)sc3n2)c1 [Example B53]
20.7%,7.75e-08 M,> 1000 nM,COc1nn2cc(-c3ccc4sccc4c3)nc2s1 [Example B54]
